Reference: the NIST ThermoML archive (doi:10.1021/je100875a)

Test: mn = molality of the nth substance listed, in mol/kg
Conditions: 101 kPa, Liquid

O=[N+]([O-])[O-].O=[N+]([O-])[O-].O=[N+]([O-])[O-].[Nd+3] [neodymium(III) nitrate] + O
mass density [kg/m3]
Conditions | m1 = 0.522 | m1 = 1.021 | m1 = 1.555 | m1 = 2.093 | m1 = 3.086 | m1 = 4.124 | m1 = 4.297
566.3 K | 1136.1 | 1255.1 | 1369.8 | 1474.7 | 1642.1 | 1785.9 | 1807
571.3 K | 1134.2 | 1252.5 | 1366.7 | 1471.1 | 1637.8 | 1781.1 | 1802.7
581.3 K | 1129.6 | 1246.7 | 1359.9 | 1463.5 | 1628.8 | 1771.4 | 1792.8

O=[N+]([O-])[O-].O=[N+]([O-])[O-].O=[N+]([O-])[O-].[La+3] [lanthanum(III) nitrate] + O
mass density [kg/m3]
Conditions | m1 = 0.4953 | m1 = 0.9893 | m1 = 1.48 | m1 = 1.97 | m1 = 2.93 | m1 = 3.9 | m1 = 4.385
293.15 K | 1125.6 | 1240.6 | 1343.1 | 1436.9 | 1595.8 | 1729.3 | 1787.9
298.15 K | 1123.8 | 1238.1 | 1340.1 | 1433.6 | 1591.8 | 1725.3 | 1783.8
308.15 K | 1119.2 | 1231.6 | 1333.5 | 1426.3 | 1583.4 | 1716.3 | 1774.6

O=[N+]([O-])[O-].O=[N+]([O-])[O-].O=[N+]([O-])[O-].[Ce+3] [cerium nitrate] + O
mass density [kg/m3]
Conditions | m1 = 0.5112 | m1 = 1.031 | m1 = 1.555 | m1 = 1.997 | m1 = 3.131 | m1 = 3.968 | m1 = 4.462
293.15 K | 1131.2 | 1252.8 | 1361.9 | 1446.2 | 1633.2 | 1746.4 | 1806
298.15 K | 1129.3 | 1250.2 | 1358.8 | 1443.1 | 1629.1 | 1742.4 | 1801.8
308.15 K | 1124.7 | 1244.4 | 1352 | 1435.7 | 1620.5 | 1733.1 | 1792.2

O=[N+]([O-])[O-].O=[N+]([O-])[O-].O=[N+]([O-])[O-].[Y+3] [yttrium nitrate] + O
mass density [kg/m3]
Conditions | 293.15 K | 298.15 K | 308.15 K
m1 = 0.2775 | – | 1057.4 | –
m1 = 0.3213 | – | 1066.6 | –
m1 = 0.3706 | – | 1076.9 | –
m1 = 0.4172 | – | 1086.5 | –
m1 = 0.4989 | 1105.5 | 1103.5 | 1099.2
m1 = 0.9965 | 1202.6 | 1200.2 | 1194.7
m1 = 1.497 | 1290.8 | 1287.8 | 1281.4
m1 = 1.982 | 1368.7 | 1365.4 | 1358.2
m1 = 2.947 | 1502.8 | 1498.9 | 1490.5
m1 = 3.945 | 1615.7 | 1611.4 | 1602.2
m1 = 4.957 | 1708.9 | 1704.3 | 1694.7
